# Measurements from patent publication US8193147B2, “Use of copolymer 1 for treatment of muscular dystrophy” (Hadasit Medical Research Services & Development Ltd., priority 2007, dated 2012).
# Tests used:
# Assay type in all cases: in vivo, mouse
# [1] = system: HO (homozygote) dy^2j mice; experiment: Motion analysis by video-recording (EthoVision), HO dy2J mice
# Protocol: (§1) Population: Twenty C57BL old mice were randomly divided into 4 groups (5 in each group):
# (§2) At 5 weeks of age WT and dy^2J animals were randomly divided to the treated and control groups. The animals were treated three times a week for 13 weeks.
# (§3) Motion analysis by video-recording. At the end of the experiment (19 week of age) animal mobility and well-being were video recorded for 10 minutes sessions. The video films were analyzed using the EthoVision system (NBT-New Biotechnology, Jerusalem, Israel, video tracking system recording of activity and movement). Quantitative parameters of mobility of the animals including total distance, maximum distance in 0.2 second, average and peak velocity were calculated.
# dy^2j mice = experiment: Muscle biopsy histology (Hematoxylin-Eosin), muscular fibrosis; conditions: dy^2j mice treated with GA for 12 weeks vs untreated; biopsies in week 17; FIG. 7
# Protocol: Tissue analysis. […]
# Muscle biopsies. Muscle biopsies were obtained from the hind limbs and were tested for:
# 1. Muscle histology hematoxylin and eosin stain (H&E) and Gommori trichrome stains
# [2] = system: WT (wild type) C57BL mice; experiment: Motion analysis by video-recording (EthoVision), WT mice; conditions: WT GA vs WT saline
# Protocol: as §1, §2, §3
# [3] = system: HO (homozygote) dy^2j mice; experiment: Grip strength of hind and fore limbs (Grip Strength Meter) in GA-treated dy2J mice; conditions: for hind limbs strength (muscle grip strength per body weight): between week 7 and week 19, p=0.0017, FIG. 1A
# Protocol: as §1
# 1. WT mice—treated saline 100 μl/IP
# 2. WT mice—treated with 200 μg GA/IP
# 3. HO mice—treated Saline 100 μl/IP
# 4. HO mice—treated with 200 μg GA/IP
# as §2
# Measurement of muscle strength (blind measurement). Once a week weight gain and total peak force (in Gram force/g bodyweight) were determined using electronic Grip Strength Meter, Columbus Instruments (Columbus, Ohio). Muscle strength measurements of both fore and hind limbs were performed according to Connolly A. M. et al., 2001. Mice were brought to the testing room and allowed to acclimatize for 10 minutes before the test begins. Five measurements (fore and hind limbs) were taken from each animal. The three highest measurements for each animal were averaged to give the strength score. Between the fore and hind measurements the mice were allowed to rest for 10 minutes. All measurements were performed by the same person.
# WT and dy^2J mice = experiment: Observation of side effects during treatment; conditions: treated group; 200 μg GA IP three times a week for 13 weeks
# Protocol: as §2
# No animal had paralysis with inability to reach food or water or dramatic weight loss (more than 10% weight loss between two weightings or 20% or more than its initial weight) or any other severe stress signs, that would necessitate withdrawal of the animal from the experiment.
substance,measurement,setting,value
glatiramer acetate [GA],maximal distance in 0.2 sec period,"[1]; HO GA treated vs untreated, p=0.016, FIG. 6",significantly longer
same,total 10-minutes average distance,"[1]; HO GA treated vs untreated, p=0.052, FIG. 5",significantly longer
same,total ten minutes average velocity,"[1]; HO GA-treated (n=5) vs untreated (n=4), p=0.051, FIG. 3",significantly faster
same,peak velocity in 0.2 sec period,"[1]; HO GA-treated vs HO untreated, p=0.017, FIG. 4",significantly faster
same,mobility,[1]; treated dy^2j mice vs untreated dy^2j mice,improved significantly
same,mobility compared with wild type mice,"[1]; treated dy^2j mice, at the end of the experiment",undistinguishable from the mobility of the wild type mice
same,muscular fibrosis in muscle biopsies,dy^2j mice,significantly reduced muscular fibrosis
same,peak velocity in 0.2 sec period,"[2]; p=0.38, FIG. 4",not significantly different
same,maximal distance in 0.2 sec period,"[2]; p=0.39, FIG. 6",not significantly different
same,total ten minutes average velocity,"[2]; p=0.51, FIG. 3",not significantly different
same,total 10-minutes average distance,"[2]; p=0.51, FIG. 5",not significantly different
same,fore limbs strength (muscle grip strength per body weight),"[3]; GA 200 μg IP three times a week, GA-treated HO vs untreated HO, p=0.13, FIG. 1B",only minimal effect
same,hind limbs strength (muscle grip strength per body weight),"[3]; GA 200 μg IP three times a week, GA-treated HO vs untreated HO",Significant increase
same,hind limbs strength (muscle grip strength per body weight),"[3]; GA 200 μg IP three times a week, GA-treated HO vs untreated HO, listed as Cop 1",improved significantly
same,"percentage of hind limbs strength, end of the experiment","[3]; HO treated mice, age 19 weeks, 100% = WT saline group at age seven weeks, FIG. 2",95.26%
same,"percentage of hind limbs strength, initial","[3]; HO treated mice, week 7, 100% = WT saline group at age seven weeks, FIG. 2",62.74%
same,hind limbs muscle strength compared with wild type mice,"[3]; treated dy^2j mice, at the end of the experiment, IP injection",as strong as the wild type mice
same,side effects,WT and dy^2J mice,No other side effects were noted
